{"source": "patent US12605350B2", "about": "“Composition for preventing, ameliorating, or treating disease caused by nitration of tyrosine in proteins comprising tyrosine as effective component” (INDUSTRY-ACADEMIC COOPERATION FOUNDATION GYEONGSANG …, priority 2020, dated 2026)", "tested_on": "chronic immobilization stress group (STR)", "experiment": "amount of glutamate, glutamine, tyrosine and GABA in PFC by LC-MS/MS", "assay_type": "in vivo, mouse", "conditions": "stress group fed tyrosine diet, vs normal group", "text": "The Amount of amino acids (glutamate, glutamine, tyrosine) and GABA in the PFC was quantified by liquid chromatography analysis (LC-MS/MS). PFC tissues were lysed first, and the tissue supernatant was collected and diluted with internal reference (L-Glu-d5) and mobile phase. The diluted sample was divided into 5 samples and injected to LC-MS/MS system (Agilent 6460). As for the column, SeQuant ZIC®-HILIC column (2.1×100 mm, 3.5 μm, 100 Å) was used, and, as a mobile phase, acetonitrile containing 0.1% formic acid was used, and the separation was made by using concentration gradient. For detecting the amino acids, multiple reaction monitoring and detection method was employed (m/z of Glu: 148→84, m/z of Gln: 147→84, m/z of GABA: 104→87, and m/z of internal reference: 153→88).", "data": [{"smiles": "N[C@@H](Cc1ccc(O)cc1)C(=O)O", "note": "[tyrosine]", "values": [{"measurement": "amount of GABA in PFC", "value": "higher than the amount level of the normal group"}, {"measurement": "amount of glutamate in PFC", "value": "higher than the amount level of the normal group"}, {"measurement": "amount of glutamine in PFC", "value": "higher than the amount level of the normal group"}, {"measurement": "amount of tyrosine in PFC", "value": "higher than the amount level of the normal group"}]}]}
